Consider 4 compounds from patent publication US20240409543A1, “PYRROLOPYRAZOLE SPIRO COMPOUND” (CHIA TAI TIANQING PHARMACEUTICAL GROUP CO., LTD., priority 2021, published 2024).

Data set [1] in a line: In-vivo pharmacokinetic study in mice. Also noted: species or system male CD-1 mice. The conditions noted are these: male, CD-1, mouse, plasma. The method, then: This experiment was intended to evaluate the pharmacokinetic behavior of each compound after a single intravenous injection and intragastric administration and to investigate the bioavailability after intragastric administration.
Male CD-1 mice aged 7 to 10 weeks were selected. The mice were fasted for at least 12 h before administration and were allowed to feed again 4 h after administration, with free access to water throughout the experiment.
On the day of the experiment, animals in the intravenous group were given the corresponding compound by a single injection via the tail vein at an administration volume of 5 mL/kg; animals in the oral group were given the corresponding compound by a single intragastric administration at an administration volume of 10 mL/kg. The animals were weighed before administration, and the administration volume was calculated based on their body weight. Sample collection time points: For the injection group, samples were collected at 0.083 h, 0.25 h, 0.5 h, 1 h, 2 h, 4 h, 8 h, and 24 h; for the intragastric group, samples were collected at 0.25 h, 0.5 h, 1 h, 2 h, 4 h, 6 h, 8 h, and 24 h. At each time point, approximately 30 μL of whole blood was collected via the saphenous vein, which was then used to prepare plasma for concentration determination by high performance liquid chromatography-tandem mass spectrometry (LC-MS/MS). All animals were euthanized with […] after the PK samples were taken at the last time point. The plasma concentrations were processed using a non-compartmental model of the pharmacokinetic software WmnNonlin™ Version 6.3 (Pharsight, Mountain View, CA), and the pharmacokinetic parameters were calculated using a linear log-trapezoidal method.

Data set [2] has as its system ERK phosphorylation in H358 cells. Nature of the data set: Inhibitory activity against ERK phosphorylation in H358 cells (HTRF Phospho-ERK1/2 kit). The format is cell-based. The conditions noted are these: Homo sapiens, NCI-H358; starved H358 cells, 1 h compound incubation; read-out: H358 cell ERK phosphorylation IC50. The protocol: H358 cells purchased from Nanjing Cobioer Biosciences Co., Ltd., 1640 medium purchased from Biological industries, fetal bovine serum purchased from Biosera, and Advanced Phospho-ERK1/2 (THR202/TYR204) KIT purchased from Cisbio.
• 1. H358 cells were plated in a transparent 96-well cell culture plate, with 80 μL of cell suspension per well, each well containing 10000 H358 cells. The cell plate was incubated in a CO2 incubator at 37° C. overnight. • 2. The cell supernatant was discarded, and a starvation medium (1640+0.02% fetal bovine serum+1% […]) was added at 80 μL/well. The cell plate was then incubated in a CO2 incubator for cell starvation treatment overnight; • 3. Each test compound was diluted with 100% DMSO to 4 mM as the first concentration, and then diluted in a 5-fold gradient to the 8th concentration (i.e., from 4 mM to […]) using a pipette. 1 μL of the compound was then added to 79 μL of cell starvation medium. The mixture was mixed well, and then the compound solution was added to the corresponding wells of the cell plate at 20 μL/well. The cell plate was then put back to the CO2 incubator for incubation for another 1 h. At that time, the concentration of the compound ranged from 10 μM to 0.0256 nM, with the concentration of DMSO being 0.25%. • 4. After the incubation was completed, the cell supernatant was discarded, and a cell lysis buffer was added at 50 μL/well. The plate was then incubated with shaking at room temperature for 30 min. 5. The Phospho-ERK1/2 Eu Cryptate antibody and Phospho-ERK1/2 d2 antibody were diluted in a 20-fold gradient with the Detection buffer. • 6. 16 μL of the cell lysate supernatant from each well was transferred to a new 384-well white microplate, and then 2 μL of the Phospho-ERK1/2 Eu Cryptate antibody dilution and 2 μL of the Phospho-ERK1/2 d2 antibody dilution were added to each well. The mixture was incubated at room temperature for 4 h. • 7. After the incubation was completed, HTRF values were read using a multimode microplate reader, with an excitation wavelength of 320 nm and emission wavelengths of 615 nm and 665 nm.
The original data were converted to inhibition rates and then the IC50 values were obtained by curve fitting using a four-parameter method.
In general terms: Time-resolved FRET reads energy transfer from a long-lived donor to a nearby acceptor.

[3] abbreviates: iv, injection (tail vein), dose 2 mg/kg.
The mark [4] stands for this setting: oral administration, dose 10 mg/kg.
[5] abbreviates: iv, injection (tail vein), dose 1 mg/kg.
Setting [6] is: oral 2 mg/kg vs injection 1 mg/kg.
Setting [7] is: oral administration, dose 2 mg/kg.

In general, AUC(0-t) refers to exposure summed from dosing to a finite time, without extrapolation to infinity. Lower therefore signals low exposure. As a reminder, the clearance is the rate of elimination divided by the concentration. Broadly, the bioavailability is dose-corrected exposure relative to a reference, in per cent. High values mean much systemic uptake, low ones little systemic uptake. The Cmax is the highest concentration seen after dosing. A word on the IC50: it is the concentration at which inhibition is half-maximal. In data set [1] (setting [3]), `Cc1nc(N2CCC3(CC2)Cn2nccc2C3N)c(CO)nc1Sc1ccnc(N)c1Cl` (stereo not drawn) [Compound 1] showed an AUC(0-t) of 2.53 µM·h and a clearance of 27.7 mL/min/kg. The same compound displayed a bioavailability in data set [1] (oral 10 mg/kg vs injection 2 mg/kg) of 69.5%. For the same compound, in data set [1] (setting [4]), the AUC(0-t) came out at 8.6 µM·h and the Cmax was 3540 nM. In addition, the IC50 in data set [2] was found to be 21.2 nM.

As to `Cc1nc(N2CCC3(CC2)Cn2nccc2C3N)c(CO)nc1Sc1cccnc1C(F)(F)F` (stereo not drawn) [Compound 4], in data set [1] (setting [5]), the AUC(0-t) was found to be 0.974 µM·h and the clearance was determined as 35.5 mL/min/kg. In data set [1] (setting [6]), the bioavailability stood at 58.6%. Besides, in data set [1] (setting [7]), the AUC(0-t) was 0.99 µM·h and the Cmax came out at 372 nM. Moreover, in data set [2], the IC50 was 75.8 nM.

In data set [1] (setting [5]), `Cc1nc(N2CCC3(CC2)Cn2nccc2C3N)c(CO)nc1Sc1ccnc(N)c1F` (stereo not drawn) [Compound 6] returned an AUC(0-t) of 0.638 µM·h and a clearance of 68.3 mL/min/kg. In data set [1] (setting [6]), this compound gave a bioavailability of 89.8%. In data set [1] (setting [7]), this compound gave an AUC(0-t) of 0.817 µM·h and a Cmax of 463 nM. Besides, the IC50 in data set [2] amounted to 57.1 nM.

In data set [1] (setting [5]), `CNc1nccc(Sc2nc(CO)c(N3CCC4(CC3)Cn3nccc3C4N)nc2C)c1Cl` (stereo not drawn) [Compound 2] had an AUC(0-t) of 1.32 µM·h and a clearance of 27 mL/min/kg. Also, the bioavailability in data set [1] (setting [6]) was found to be 83.6%. In addition, in data set [1] (setting [7]), the AUC(0-t) is 2.04 µM·h and the highest level (Cmax) was 927 nM. Also, the IC50 in data set [2] was 84.1 nM.
